This is an account of results in patent publication US20210355121A1, “FUSED TRICYCLIC KRAS INHIBITORS” (Incyte Corporation, priority 2020, published 2021).

One experiment has as its target KRAS G12D (Homo sapiens, UniProt P01116, G12D). Description: KRAS G12D GDP-GTP exchange assay (bodipy-GDP for GppNHp, with SOS1). In kind it is biochemical. Conditions: 2.5 nM bodipy loaded KRAS G12D, 4 hours after GppNHp-SOS1; read-out: G12D_exchange (KRAS_G12D exchange assay IC50). On the procedure: (§1) The inhibitor potency of the exemplified compounds was determined in a fluorescence based guanine nucleotide exchange assay, which measures the exchange of bodipy-GDP (fluorescently labeled GDP) for GppNHp (Non-hydrolyzable GTP analog) to generate the active state of KRAS in the presence of SOS1 (guanine nucleotide exchange factor). Inhibitors were serially diluted in DMSO and a volume of 0.1 μL was transferred to the wells of a black low volume 384-well plate. 5 μL/well volume of bodipy-loaded KRAS G12C diluted to 5 nM in assay buffer (25 mM Hepes pH 7.5, 50 mM NaCl, 10 mM MgCl2 and 0.01% Brij-35) was added to the plate and pre-incubated with inhibitor for 2 hours at ambient temperature. Appropriate controls (enzyme with no inhibitor or with a G12C inhibitor (AMG-510)) were included on the plate. The exchange was initiated by the addition of a 5 μL/well volume containing 1 mM GppNHp and 300 nM SOS1 in assay buffer. The 10 μL/well reaction concentration of the bodipy-loaded KRAS G12C, GppNHp, and SOS1 were 2.5 nM, 500 uM, and 150 nM, respectively. The reaction plates were incubated at ambient temperature for 2 hours, a time estimated for complete GDP-GTP exchange in the absence of inhibitor. For the KRAS G12D and G12V mutants, similar guanine nucleotide exchange assays were used with 2.5 nM as final concentration for the bodipy loaded KRAS proteins and with 4 hours and 3 hours incubation after adding GppNHp-SOS1 mixture for G12D and G12V respectively. A cyclic peptide described to selectively bind G12D mutant (Sakamoto et al., BBRC 484.3 (2017), 605-611) or internal compounds with confirmed binding were used as positive controls in the assay plates. Fluorescence intensities were measured on a PheraStar plate reader instrument (BMG Labtech) with excitation at 485 nm and emission at 520 nm.
(§2) Either GraphPad prism or XLfit was used to analyze the data. The IC50 values were derived by fitting the data to a four parameter logistic equation producing a sigmoidal dose-response curve with a variable Hill coefficient. Prism equation: Y=Bottom+(Top−Bottom)/(1+10^((Log IC50−X)*Hill slope)); XLfit equation: Y=(A+((B−A)/(1+((X/C)^D)))) where X is the logarithm of inhibitor concentration and Y is the response.

Another experiment concerns the target KRAS G12V (Homo sapiens, UniProt P01116, G12V). The experiment is described as follows: KRAS G12V GDP-GTP exchange assay (bodipy-GDP for GppNHp, with SOS1). In kind it is biochemical. The conditions noted are these: 2.5 nM bodipy loaded KRAS G12V, 3 hours after GppNHp-SOS1; read-out: G12V_exchange (KRAS_G12V exchange assay IC50). The procedure: as §1, §2

Some results are limits rather than exact numbers.

KRAS G12D, sequence (P01116 1-188 isoform P01116-2 G12D): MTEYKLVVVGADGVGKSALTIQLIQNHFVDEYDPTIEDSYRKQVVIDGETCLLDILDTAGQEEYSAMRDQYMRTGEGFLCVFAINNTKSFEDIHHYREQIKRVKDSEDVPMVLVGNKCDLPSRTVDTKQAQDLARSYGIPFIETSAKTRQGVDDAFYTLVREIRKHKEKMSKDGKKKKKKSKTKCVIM
KRAS G12V, sequence (P01116 1-188 isoform P01116-2 G12V): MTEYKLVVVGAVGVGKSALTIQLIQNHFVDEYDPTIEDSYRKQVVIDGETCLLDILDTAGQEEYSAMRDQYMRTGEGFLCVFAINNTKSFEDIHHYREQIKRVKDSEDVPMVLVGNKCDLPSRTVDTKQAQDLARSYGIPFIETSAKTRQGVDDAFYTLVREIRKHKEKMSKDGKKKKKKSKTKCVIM

By IC50 is commonly meant the midpoint of a concentration-inhibition curve. On to `CN1CCC[C@H]1COc1nc2c(F)c(-c3cc(O)cc4ccccc34)c(CCC#N)cc2c2c1cc(Cc1ccccc1)n2C1C2CNC1C2` (stereo partly drawn) [Example 40, 3-(2-benzyl-1-(2-azabicyclo[2.1.1]hexan-5-yl)-6-fluoro-7-(3-hydroxynaphthalen-1-yl)-4-(((S)-1-methylpyrrolidin-2-yl)methoxy)-1H-pyrrolo[3,2-c]quinolin-8-yl)propanenitrile], for which the IC50 at KRAS G12D fell in the range of 0.1 to 1 µM; at KRAS G12V, 1 to 5 µM.

As to `CN1CCC[C@H]1COc1nc2c(F)c(-c3cc(O)cc4ccccc34)c(CCC#N)cc2c2c1c(-c1cn[nH]c1)cn2C1C2CNC1C2` (stereo partly drawn) [Example 41, 3-(1-(2-azabicyclo[2.1.1]hexan-5-yl)-6-fluoro-7-(3-hydroxynaphthalen-1-yl)-4-(((S)-1-methylpyrrolidin-2-yl)methoxy)-3-(1H-pyrazol-4-yl)-1H-pyrrolo[3,2-c]quinolin-8-yl)propanenitrile], the IC50 at KRAS G12D and at KRAS G12V was ≤ 0.1 µM each time.

Regarding `CN1CCC[C@H]1COc1nc2c(F)c(-c3cc(O)cc4ccccc34)c(CCC#N)cc2c2c1c(-c1ccc(=O)[nH]c1)cn2C1C2CNC1C2` (stereo partly drawn) [Example 42, 3-(1-(2-azabicyclo[2.1.1]hexan-5-yl)-6-fluoro-7-(3-hydroxynaphthalen-1-yl)-4-(((S)-1-methylpyrrolidin-2-yl)methoxy)-3-(6-oxo-1,6-dihydropyridin-3-yl)-1H-pyrrolo[3,2-c]quinolin-8-yl)propanenitrile], the IC50 on KRAS G12D is ≤ 0.1 µM; at KRAS G12V, 0.1 to 1 µM.

For `CN1CCC[C@H]1COc1nc2c(F)c(-c3cc(O)cc4ccccc34)c(CCC#N)cc2c2c1c(Cl)cn2C1C2CNC1C2` (stereo partly drawn) [Example 43, 3-(1-(2-azabicyclo[2.1.1]hexan-5-yl)-3-chloro-6-fluoro-7-(3-hydroxynaphthalen-1-yl)-4-(((S)-1-methylpyrrolidin-2-yl)methoxy)-1H-pyrrolo[3,2-c]quinolin-8-yl)propanenitrile], the IC50 was ≤ 0.1 µM at KRAS G12D and 0.1 to 1 µM on KRAS G12V.

Regarding `CN1CCC[C@H]1COc1nc2c(F)c(-c3cc(O)cc4ccccc34)c(CCC#N)cc2c2c1c(C(=O)NCCO)cn2C1C2CNC1C2` (stereo partly drawn) [Example 44, 1-(2-azabicyclo[2.1.1]hexan-5-yl)-8-(2-cyanoethyl)-6-fluoro-N-(2-hydroxyethyl)-7-(3-hydroxynaphthalen-1-yl)-4-(((S)-1-methylpyrrolidin-2-yl)methoxy)-1H-pyrrolo[3,2-c]quinoline-3-carboxamide], the IC50 on KRAS G12D is ≤ 0.1 µM; at KRAS G12V it was 0.1 to 1 µM.

As for `CN1CCC[C@H]1COc1nc2c(F)c(-c3cc(O)cc4ccccc34)c(CCC#N)cc2c2c1c(C(=O)NCc1ccccc1)cn2C1C2CNC1C2` (stereo partly drawn) [Example 45, N-Benzyl-1-(2-azabicyclo[2.1.1]hexan-5-yl)-8-(2-cyanoethyl)-6-fluoro-7-(3-hydroxynaphthalen-1-yl)-4-(((S)-1-methylpyrrolidin-2-yl)methoxy)-1H-pyrrolo[3,2-c]quinoline-3-carboxamide], the IC50 is ≤ 0.1 µM at KRAS G12D and 0.1 to 1 µM on KRAS G12V.

For `CN1CCC[C@H]1COc1nc2c(F)c(-c3cc(O)cc4ccccc34)c(CCC#N)cc2c2c1c(CO)cn2C1C2CNC1C2` (stereo partly drawn) [Example 46, 3-(1-(2-Azabicyclo[2.1.1]hexan-5-yl)-6-fluoro-3-(hydroxymethyl)-7-(3-hydroxynaphthalen-1-yl)-4-(((S)-1-methylpyrrolidin-2-yl)methoxy)-1H-pyrrolo[3,2-c]quinolin-8-yl)propanenitrile], the IC50 on KRAS G12D was ≤ 0.1 µM; at KRAS G12V, 0.1 to 1 µM.

Consider `CCOc1nc2c(F)c(-c3cc(O)cc4ccccc34)c(CCC#N)cc2c2c1cc(CCC(=O)N(C)C)n2[C@H]1[C@H]2CN[C@@H]1C2` [Example 48, 3-(1-((1R,4R,5S)-2-azabicyclo[2.1.1]hexan-5-yl)-8-(2-cyanoethyl)-4-ethoxy-6-fluoro-7-(3-hydroxynaphthalen-1-yl)-1H-pyrrolo[3,2-c]quinolin-2-yl)-N,N-dimethylpropanamide], for which the IC50 on KRAS G12D and on KRAS G12V was ≤ 0.1 µM in each case.

For `COC(=O)CCc1c(N2CC(N(C)C)C2)c2c(OC)nc3c(F)c(-c4cc(O)cc5ccccc45)c(CCC#N)cc3c2n1[C@H]1[C@H]2CN[C@@H]1C2` [Example 49, methyl 3-(1-((1R,4R,5S)-2-azabicyclo[2.1.1]hexan-5-yl)-8-(2-cyanoethyl)-3-(3-(dimethylamino)azetidin-1-yl)-6-fluoro-7-(3-hydroxynaphthalen-1-yl)-4-methoxy-1H-pyrrolo[3,2-c]quinolin-2-yl)propanoate], the IC50 at KRAS G12D and on KRAS G12V was 0.1 to 1 µM in each case.

On to `CN1CCC[C@H]1COc1nc2c(F)c(-c3cccc4ccc(F)cc34)c(CCC#N)cc2c2c1cc(CCC(=O)N1CCC1)n2C1C2CNC1C2` (stereo partly drawn) [Example 50, 3-(2-(3-(azetidin-1-yl)-3-oxopropyl)-1-(2-azabicyclo[2.1.1]hexan-5-yl)-6-fluoro-7-(7-fluoronaphthalen-1-yl)-4-(((S)-1-methylpyrrolidin-2-yl)methoxy)-1H-pyrrolo[3,2-c]quinolin-8-yl)propanenitrile], for which the IC50 at KRAS G12D and on KRAS G12V was ≤ 0.1 µM in each case.
